For one data set, the system named is C. albicans SC5314. The data set can be described thus: GC-MS analysis of sterol composition. It is filed as cell-based, Candida albicans. Conditions: 8 µg/mL, 8 h, control 89.85%. Here is the method: As the major fungal sterol, ergosterol accounted for 89.85% of the total sterols in the control group, zymosterol accounted for 8.80%, in addition to several other sterols. […] In contrast, the content of other sterols in the bypass pathway increased.
Overnight cultured C. albicans SC5314 fungal cells were collected and diluted to 5 × 10^6 cells/mL in YEPD medium. […] The fungal cells were cultured by shaking (200 rpm) at 30 °C. After incubation for 8 h, the fungal suspension was centrifuged (3000 rpm, 1 min), harvested and washed twice with distilled water carefully. The saponifying agent (6 ml of 15% NaOH resolved in 90% ethanol) was added to the precipitate. After 1 h of saponification at 80 °C, sterols were extracted with hexane (3 × 5 ml). The combined extracts were evaporated in a water bath and washed once with water. The residue was dried in a 60 °C water bath to obtain the total sterols. Finally, the total sterol was analysed by GC-MS and the structures of each sterol content were identified and compared with the National Institute of Standards and Technology (NIST) database.

A further data set has as its system C. auris 919. The data set can be described thus: MIC against FCZ-resistant strains, microdilution. It is filed as cell-based, Candida auris. Conditions: Candidozyma auris, FCZ-resistant isolate, 30 °C, 24 h. The source says: (§1) The alarming impact of drug resistance amongst Candida spp. is an emerging problem globally. Rising rates of azole-resistant Candida spp. are associated with an increase in treatment failures. Candida auris is characterised by a high level of multi-drug resistance. It has been reported in more than 45 countries and has caused serious hospital outbreaks with crude mortality rates as high as 72%[13]^,[14].
(§2) All fungal strains used in this study were obtained from the American Type Culture Collection (ATCC) and Changhai Hospital (Shanghai, China). All strains were cultivated by shaking (200 rpm) at 30 °C in YEPD medium (1% yeast extract, 2% peptone, and 2% dextrose) to an exponential growth stage.
(§3) Fungal cells at the exponential growth stage were collected and resuspended in RPMI 1640 medium, then diluted to 1 × 10^3 cells/mL. The suspension of fungal cells was inoculated into 96-well plates. Antifungal compounds were serially added and diluted in a 2-fold series to a final concentration range of 64.0–0.125 µg/mL. RPMI 1640 medium with no fungal cells served as a blank control. […] C. albicans, C. glabrata, C. parapsilosis, C. tropicalis, and C. auris cells were incubated at 30 °C for 24 h, C. neoformans and A. fumigatus cells were incubated at 30 °C for 48 h. The optical density (OD630) at 630 nm was measured by a spectrophotometer, which was used to calculate the MIC80 values of each compound.
In general terms: Dilution methods test growth across graded concentrations, often in twofold steps.

For the next data set, the system named is C. auris 918. The experiment in a line: MIC against FCZ-resistant strains, microdilution. It is filed as cell-based, Candida auris. Conditions: Candidozyma auris, FCZ-resistant isolate, 30 °C, 24 h.
Excerpt: as §1, §2, §3

The next data set is described as follows: in vitro. Conditions: rabbit.
For data set [1], the system named is FCZ-resistant C. albicans 901. The experiment in a line: MIC against FCZ-resistant strains, microdilution. Conditions: Candida albicans; FCZ-resistant isolate, 30 °C, 24 h; read-out: MIC, C.alb 901. It is filed as cell-based, Candida albicans.
Excerpt: as §1, §2, §3

For data set [2], the system named is Cryptococcus neoformans 22-21. The experiment in a line: Broth microdilution MIC (CLSI M27-A3/M60). It is filed as cell-based. Conditions: 2221, MIC80 (≥80% growth inhibition), 30 °C, 48 h, read-out: MIC, C. neo 22-21. As to the method:
(§4) According to the Clinical Laboratory Standards Institute (CLSI, M27-A3 and M60) protocols[10]^,[11], the target compounds were evaluated for their in vitro antifungal activity by the broth microdilution method. The fungi strains used in this study were obtained from the American Type Culture Collection (ATCC) and Changhai Hospital (Shanghai, China). […] Fluconazole (FCZ) and ketoconazole (KCZ) were used as positive controls.
as §2
(§5) Fungal cells at the exponential growth stage were collected and resuspended in RPMI 1640 medium, then diluted to 1 × 10^3 cells/mL. The suspension of fungal cells was inoculated into 96-well plates. Antifungal compounds were serially added and diluted in a 2-fold series to a final concentration range of 64.0–0.125 µg/mL. RPMI 1640 medium with no fungal cells served as a blank control. The fungal suspensions containing DMSO and FCZ served as the negative control and the positive control, respectively. C. albicans, C. glabrata, C. parapsilosis, C. tropicalis, and C. auris cells were incubated at 30 °C for 24 h, C. neoformans and A. fumigatus cells were incubated at 30 °C for 48 h. The optical density (OD630) at 630 nm was measured by a spectrophotometer, which was used to calculate the MIC80 values of each compound.

In another data set the test system is Candida glabrata 537. The experiment in a line: Broth microdilution MIC (CLSI M27-A3/M60). It is filed as cell-based. Conditions: Nakaseomyces glabratus, 537; MIC80 (≥80% growth inhibition), 30 °C, 24 h; read-out: MIC, C. gla 537. As to the method:
as §4, §2, §5

Another data set relates to Candida albicans SC5314. The experiment in a line: Broth microdilution MIC (CLSI M27-A3/M60). Conditions: MIC80 (≥80% growth inhibition), 30 °C, 24 h; for MIC: Candida albicans, SC5314, read-out: MIC, C. alb SC5314. It is filed as cell-based. Here is the method: as §4, §2, §5
The subject of a further data set is Candida tropicalis 8915. The experiment in a line: Broth microdilution MIC (CLSI M27-A3/M60). Conditions: MIC80 (≥80% growth inhibition), 30 °C, 24 h; for MIC: Candida tropicalis, 8915, read-out: MIC, C. tro 8915. It is filed as cell-based. Here is the method: as §4, §2, §5
The subject of data set [3] is Candida parapsilosis 22-20. The data set can be described thus: Broth microdilution MIC (CLSI M27-A3/M60). It is filed as cell-based. Conditions: Lodderomyces parapsilosis, 2220; MIC80 (≥80% growth inhibition), 30 °C, 24 h; read-out: MIC, C. par 22-20. Here is the method:
as §4, §2, §5

Data set [4] relates to Aspergillus fumigatus 7544. The data set can be described thus: Broth microdilution MIC (CLSI M27-A3/M60). It is filed as cell-based. Conditions: MIC80 (≥80% growth inhibition), 30 °C, 48 h; for MIC: Aspergillus fumigatus, 7544, read-out: MIC, A. fum 7544. Here is the method:
as §4, §2, §5

The results in this text go back to PMC10413920, “Design, synthesis and in vitro biological studies of novel triazoles with potent and broad-spectrum antifungal activity” (Journal of Enzyme Inhibition and Medicinal Chemistry, 2023).

Structures are written as SMILES. Converted amounts (≈) assume the structure as drawn.

`OC(Cn1cncn1)(Cn1cncn1)c1ccc(F)cc1F` [FCZ, fluconazole, reference compound]: the “ergosterol content of the fungal cells (of total sterols)” value with C. albicans SC5314 is on record as 6.08%. Further, the minimum inhibitory concentration (MIC) (usually the lowest concentration found to suppress growth) in the data set with C. auris 919 is above 256 µg/mL; in the data set on C. auris 918, above 256 µg/mL; in data set [1], above 256 µg/mL; in [2], 1 µg/mL (≈ 3.27 µM); with Candida glabrata 537, 1 µg/mL (≈ 3.27 µM); in the data set on Candida albicans SC5314, 0.5 µg/mL (≈ 1.63 µM). For the same compound, the results for the minimum inhibitory concentration (MIC) (in the data set on Candida tropicalis 8915; in data set [3]; in data set [4]) were above 64 µg/mL, 4 µg/mL (≈ 13.1 µM) and above 64 µg/mL, respectively. For the same compound, the hemolysis at 1 h, 16 µg/mL in “in vitro” came to 1.3%. Besides, in the data set on Candida tropicalis 8915, the “MIC, C. tro 8915” value is above 64.0 µg/mL. In data set [4], the “MIC, A. fum 7544” value is above 64.0 µg/mL.

With `C[C@@H](NC(=O)CCc1ccc(C(C)(C)C)cc1)[C@](O)(Cn1cncn1)c1ccc(F)cc1F` [A9], the “ergosterol content of the fungal cells (of total sterols)” value in the data set on C. albicans SC5314 stood at 5.17%. Moreover, the MIC in the data set on C. auris 919 was 32 µg/mL (≈ 70.1 µM); in the data set on C. auris 918, above 64 µg/mL; in data set [1], 32 µg/mL (≈ 70.1 µM); in data set [2], at most 0.125 µg/mL; in the data set on Candida glabrata 537, at most 0.125 µg/mL; with Candida albicans SC5314 it was at most 0.125 µg/mL. Further, the minimum inhibitory concentration (MIC) was above 64 µg/mL in the data set with Candida tropicalis 8915, 0.25 µg/mL (≈ 0.548 µM) in data set [3] and 32 µg/mL (≈ 70.1 µM) in data set [4]. The hemolysis at 1 h, 16 µg/mL in “in vitro” is 0.78%. For the same compound, the “MIC, C. alb SC5314” value against Candida albicans SC5314 is at most 0.125 µg/mL.
